According to patent US10117890B2, “Methods and compositions for treating pain” (Academia Sinica, priority 2012, dated 2018):
“Also recorded” adds a separate entry of the source.

Key:
[1] = system: acid(ASIC3)-induced chronic muscle pain; assay: Acid-induced chronic muscle pain model (repeated intramuscular acid injection, von Frey test); type: in vivo, mice; settings: for acid-induced hyperalgesia, co-injection with acidic saline: 1 nmole, i.m.
Text: Adult (8- to 12-wk-old) C57/BL6 mice were used. All procedures followed the Guide for the Use of Laboratory Animals (National Academy Press, Washington D.C., USA) and were approved by the Institutional Animal Care and Use Committee of Academia Sinica. We aimed to minimize the number of animals used and their suffering without compromising the quality of the experiments. The generation and genotyping of Tac1^−/− mice and Asic3^−/− mice were as described. Both null mutant mice were backcrossed to C57/BL6 for 10 generations to establish a congenic strain. Congenic Tac1^−/− Asic3^−/− mice were offspring of Tacl^+/− and Asic3^+/− intercrosses.
Mice received an intramuscular acid injection in the gastrocnemius muscle (GM) containing 20 μl acid saline (pH 4.0) with or without (Sar^9, Met(O2)^11)-substance P (SP; 4, 10, or 40 μM) or 100 μM RP67580 or 200 μM XE991. Mechanical hyperalgesia was assessed by applying a 0.2-mN von Frey filament to the plantar surface of both hind paws of mice. Mice were acclimatized in an acrylic cubicle for 60 min before testing. A positive response was defined as the foot lifting when the von Frey filament was applied. For each paw, the filament was applied 5 times at 30-sec intervals. Responses of the paw to mechanical stimuli were measured before injection and at 4 and 24 hr and 5 days after the first acid injection (day 0) and at 4, 24, and 72 hr and 1 week after the second acid injection (day 5). For single-injection experiments, responses to mechanical stimuli were measured before the injection, at 4 hr and at 1, 3, 5, 7, 9, 11, 13, 15 and 22 days after the injection or at 4, 24, 48 hr and 7 and 14 days after the injection. NK1-selective agonist ((Sar^9, Met(O2)^11)—SP) was from Sigma Chemical (St. Louis, Mo.). NK1-selective antagonist (RP67580) and XE991 were from Tocris (Avonmouth, UK). The experimenters were blinded to the experimental manipulations. The person who conducted von Frey test had no information of the mouse genotypes or drug injections.

ASIC3 = assay: Whole-cell patch clamp of acid-induced current in CHO cells transfected with ASIC3; type: cell-based
ICS-induced pain = assay: Intermittent cold stress (ICS) mouse model of fibromyalgia, von Frey test; type: in vivo, mice; settings: SM-substance P 0.6 mg/kg alone
Method: Mechanical hyperalgesia was assessed by applying a 0.2 mN von Frey filament to the plantar surface of both hind paws. For each paw, the filament was applied for 5 times at 30-s intervals.
To induce fibromyalgia-like symptoms, mice were treated with intermittent cold stress, which produces long-lasting (more than 2 weeks) thermal hyperalgesia and mechanical allodynia, predominantly in females. Method: Mice were placed on stainless mesh plate in a cold room at 4° C. overnight (from 4:30 pm to 10:00 am), followed by intermittent cold stress with environment temperatures alternating between 24 and 4° C. every 30 min, from 10:00 am to 4:30 pm. These procedures were repeated twice. On day 3, the mice were adapted to 24 C for 1 h before behavioral testing.
The second fibromyalgia model is developed by Ueda's group, in which mice were treated with intermittent cold stress for 2 days (Nishiyori & Ueda, 2008). Mice treated with intermittent cold stress will develop long-lasting (>2 weeks) mechanical and thermal hyperalgesia. Analgesic effect of T1-11 was tested in these mice 5 day after intermittent cold stress (ICS). […] Moreover, we found T1-11 and substance P have synergistic effect in treating the ICS-induced pain.

[2] = system: muscle nociceptors (ASIC3-positive muscle afferent DRG neurons expressing ISP-O); assay: Whole-cell patch-clamp recording of outward currents in muscle afferent DRG neurons; type: cell-based, mice; settings: for induction of outward current in ASIC3/SP-expressing muscle DRG neurons: SP-sensitive muscle nociceptors; for inhibition of T1-11-induced outward current (IT1-11) by adenosine receptor antagonists: muscle nociceptors
Method: The digested DRG neurons were washed with fetal calf serum (FCS)-free DMEM or DMEM containing 10% FCS during each treatment. Fully digested DRGs were triturated and plated on poly-L-lysine-coated cover slides. Cell cultures were maintained in a 5% CO2 incubator at 37° C.
Whole-cell patch-clamp recordings of muscle-afferent neurons involved use of Axopatch MultiClamp 700B (Axon Instruments). Neurons with membrane potential >−40 mV were discarded. The bridge was balanced in current-clamp recording, and the series resistance was compensated 70% in voltage-clamp recording with […] 700B compensation circuitry. All experiments were performed at room temperature (21-25° C.) and completed within 30 hr post-seeding. Unless specifically mentioned, the patch pipettes were prepared in 1-5 MΩ and filled with internal solution containing (in mM) 100 KCl, 2 Nae-ATP, 0.3 Na3-GTP, 10 EGTA, 5 MgCl2, and 40 HEPES, adjusted to pH 7.4 with KOH. Recording cells were superfused in artificial cerebrospinal fluid (ACSF) by control with gravitational force. The ACSF contained (in mM) 130 NaCl, 5 KCl, 1 MgCl2, 2 CaCl2, 10 glucose, and 20 HEPES, adjusted to pH 7.4 with NaOH. Osmolarity was adjusted to 300 mOsm. The acidic ACSF was titrated to pH 6.8 by […]. […] If not specifically mentioned, drugs listed above were from Sigma Chemical (St. Louis, Mo.).
The procedure was repeated at least 2 times to ensure consistent data. […] ACSF-containing compounds were superfused for 1 min to ensure complete replacement of previous perfusate between treatments. […] A recording pipette containing 1 mM GDP-β-S was used in GTP dialysis. The GABA-B current was induced by 100 μM Baclofen at the beginning of dialysis (0, 1 and 2 min after whole-cell patch clamp). Then, Baclofen was used to re-stimulate the dialyzed neurons after 10-min dialysis (10, 11 and 12 min after whole-cell patch clamp).

APETx2
acid-induced hyperalgesia, co-injection of acid and APETx2 ([1]; APETx2 2 pmole at the first acid injection): abolished the transient hyperalgesia and prevented the development of chronic hyperalgesia

O=C(O)c1ccccc1O [salicylic acid, reference compound]
acid-induced current in CHO cells transfected with ASIC3 (ASIC3): blocked

(Sar^9, Met(O2)^11)-substance P [SM-substance P, reference compound]
analgesic effect on ICS-treated mice, SM-substance P alone (ICS-induced pain): did not show analgesic effect

COc1ccccc1CC(=N)N1C[C@@H]2C(=O)CCC(c3ccccc3)(c3ccccc3)[C@@H]2C1 [RP67580, reference compound]
inhibition of IT1-11 by NK1 receptor antagonist ([2]; RP67580 (10 n=17)): inhibited IT1-11

CCNC(=O)[C@H]1O[C@@H](n2cnc3c(N)nc(NCCc4ccc(CCC(=O)O)cc4)nc32)C(O)C1O (stereo in doubt) [CGS21680, reference compound]
acid-induced hyperalgesia, co-injection with acidic saline [1]: partially inhibited acid-induced hyperalgesia; also recorded: showed partial analgesic effect | outward current in A2A−/− muscle afferent DRG neurons ([2]; CGS21680 high dose 10 μM): induces an outward current | induction of outward current in ASIC3/SP-expressing muscle DRG neurons [2]: can also induce outward currents

OC[C@H]1O[C@@H](n2cnc3c(NCCc4c[nH]c5ccccc45)ncnc32)C(O)C1O (stereo in doubt) [JMF1907]
induction of outward current in ASIC3/SP-expressing muscle DRG neurons [2]: can also induce outward currents

OC[C@H]1O[C@@H](n2cnc3c(NCc4cccc(O)c4)ncnc32)C(O)C1O (some centres unmarked) [JMF1998]
induction of outward current in ASIC3/SP-expressing muscle DRG neurons [2]: can also induce outward currents

O=C(Cc1ccccc1)Nc1nc2ccc(Cl)cc2c2nc(-c3ccco3)nn12 [MRS1220, reference compound]
effect of antagonist on the analgesic effect of T1-11 ([1]; MRS1220 200 pmole i.m.): abolished the analgesic effect of T1-11 | inhibition of T1-11-induced outward current (IT1-11) by adenosine receptor antagonists [2]: reversely inhibited

CNC(=O)[C@H]1O[C@@H](n2cnc3c(NCc4cccc(I)c4)ncnc32)[C@H](O)[C@@H]1O [IB-MECA]
acid-induced hyperalgesia, co-injection with acidic saline [1]: has no effect on acid-induced hyperalgesia; also recorded: did not have analgesic effect

OC[C@H]1O[C@@H](n2cnc3c(NCc4ccc(Br)cc4)ncnc32)C(O)C1O (some centres unmarked) [JMF2665]
induction of outward current in ASIC3/SP-expressing muscle DRG neurons [2]: can also induce outward currents

CCCn1cc2c(nc(NC(=O)Nc3ccc(OC)cc3)n3nc(-c4ccco4)nc23)n1 [MRE3008F20, reference compound]
inhibition of T1-11-induced outward current (IT1-11) by adenosine receptor antagonists [2]: reversely inhibited
